# Experimental data reported in patent US7547728B2, “Treating muscle wasting with selective androgen receptor modulators” (priority 2001, dated 2009).
# Several values for one entry are separate records, joined by “and”; a condition that tells them apart may be missing. Equal entries are not always repeated. Where two headings read alike, the source gives them in different places.
# How the values were obtained:
# [1] = test system: MHC II b mRNA; assay: MHC IIb mRNA expression by RT-PCR in masseter muscle of intact female rats; format: in vivo, rat
# Experimental: Rat muscle tissue was harvested in 5 volumes of RNA later solution (Ambion, cat.# 7020) and stored at 4° C. until used for RNA isolation. Total RNA was isolated in the FastPrep FP120 instrument (Qbiogene) using RNAqueous-4PCR kit (Ambion, cat # 1914) in combination with FastRNA green tubes (Qbiogene, cat.# 6040-600) at settings for time at 45 sec and speed at 6.5.1 ug of total RNA was used for reverse transcription using Retroscript kit (Ambion, cat# 1710). The mixture was incubated at 42° C. for 60 min, followed by 10 min at 92° C., and then chilled on ice and used in PCR reaction.
# Relatively quantitative RT-PCR was used to analyze expression of MHC mRNA in rat musculus masseter (MM) and levator ani (LA). As an internal standard 18S ribosomal RNA was used (QuantumRNA classic 18S Internal Standard, Ambion, cat.# 1716). Linear range of PCR reaction for all primers as well as optimal ratio of 18S primers to competitors to achieve the same level of amplification as the genes of interest was determined.
# Primers were obtained from IDT based on the recently published design (Wright et al., J. Appl. Phys. 1997;83:1389), with the following sequence: 5′[…]3′. […]
# 5 units of Taq DNA polymerase (Roche, cat# 1146165), 200 μM of each dNTP (Invitrogen, cat.#R725-01), 0.2 μM each MHC primer (IDT), 1 μl of cDNA from reverse transcription reaction and 4 μl of 18S primers: competitors mixture were used in 50 μl PCR reaction. […] PCR products were analyzed by agarose gel electrophoresis [20-μl aliquots of a 50-μl PCR reaction loaded on a 1.5% agarose gel (in 1× Tris-Acetate-EDTA buffer) containing 0.2 μg/ml ethidium bromide] to visualize the PCR products. […] Pictures were scanned and the volume of the optical density (OD) of a DNA band was determined by the Image Quant software (Molecular Dynamics), and the background was subtracted (so local background was directly proportional to the amount of DNA over a wide range). […] The content of each experimental group MHC gene was calculated as a percentage of the MHC value in the control group (Table 2).
# [2] = test system: levator ani; assay: Levator ani evaluation in androgen-treated intact female rats; format: in vivo, rat; conditions: 14 and 28 days treatment
# From the text: In these same rats, the levator ani was dissected and evaluated for the expression pattern of MHC family members. […] Physiol. 75(5): 2337-2340, 1993].
# [3] = test system: prostate; assay: Androgenic activity: prostate weight in male rats; format: in vivo, rat; conditions: for Agonist character in prostate: male rats, from organ weights
# From the text: (§1) Male Sprague-Dawley rats were purchased from Harlan Biosciences (Indianapolis, Ind.). […] One day before the initiation of drug treatment, groups 4 through 6 and groups 7 through 9 received unilateral or bilateral orchidectomy, respectively, via a midline scrotal incision. […] All drugs given to animals were freshly prepared as solutions in polyethylene glycol 300 (PEG 300). Groups 4 and 7 received treatment with vehicle alone (i.e., PEG 300). […] The ventral prostates, seminal vesicles, and levator ani muscle were removed and weighed. Osmotic pumps were also removed from animals to check for correct pump operation. […] Statistical analyses of parameters from complete blood count or serum chemical profiling, wherever applicable, were performed by single-factor ANOVA with the alpha value set a priori at p<0.05.
# [4] = test system: seminal vesicles; assay: Androgenic activity: seminal vesicle weight in male rats; format: in vivo, rat; conditions: for Agonist character in seminal vesicles: male rats, from organ weights; for ED50 / Emax (% of Intact Control) / Relative Afficacy / Relative Potency: seminal vesicle; for ED50 / Emax (% of Intact Control) / Seminal Vesicles weight: castrated rats; for ED50 / Emax (% of Intact Control): dose response 0.1-1.0 mg/day; for Relative Afficacy / Relative Potency: relative to TP
# From the text: as §1
# [5] = test system: levator ani muscle; assay: Anabolic activity: levator ani muscle weight in male rats; format: in vivo, rat; conditions: for ED50 / Emax (% of Intact Control) / Relative Afficacy / Relative Potency: levator ani muscle; for ED50 / Emax (% of Intact Control): dose response 0.1-1.0 mg/day; for Relative Afficacy / Relative Potency: relative to TP; for Levator ani muscle weight compared with intact controls: castrated male rats, 0.1-1 mg/day (FIG. 7)
# From the text: as §1
# [6] = Adverse pharmacologic effects in rats of varying hormonal status; format: in vivo, rat; conditions: male rats, 0.5 mg/day, 14 days
# [7] = test system: FSH, LH and testosterone; assay: Plasma concentrations of FSH, LH and testosterone in treated male rats; format: in vivo, rat; conditions: data not shown
# [8] = test system: MHC IIb mRNA; assay: MHC IIb mRNA expression in masseter and gastrocnemius muscle of intact male rats; conditions: TP 5 mg/kg/day, Compound V 1 mg/kg/day
# [9] = biological target: T1, androgen receptor (Rattus norvegicus, UniProt P15207); assay: biochemical; format: binding; conditions: for RBA (%): relative binding affinity
# T1 construct: from tissue
# T1 sequence (P15207 1-902): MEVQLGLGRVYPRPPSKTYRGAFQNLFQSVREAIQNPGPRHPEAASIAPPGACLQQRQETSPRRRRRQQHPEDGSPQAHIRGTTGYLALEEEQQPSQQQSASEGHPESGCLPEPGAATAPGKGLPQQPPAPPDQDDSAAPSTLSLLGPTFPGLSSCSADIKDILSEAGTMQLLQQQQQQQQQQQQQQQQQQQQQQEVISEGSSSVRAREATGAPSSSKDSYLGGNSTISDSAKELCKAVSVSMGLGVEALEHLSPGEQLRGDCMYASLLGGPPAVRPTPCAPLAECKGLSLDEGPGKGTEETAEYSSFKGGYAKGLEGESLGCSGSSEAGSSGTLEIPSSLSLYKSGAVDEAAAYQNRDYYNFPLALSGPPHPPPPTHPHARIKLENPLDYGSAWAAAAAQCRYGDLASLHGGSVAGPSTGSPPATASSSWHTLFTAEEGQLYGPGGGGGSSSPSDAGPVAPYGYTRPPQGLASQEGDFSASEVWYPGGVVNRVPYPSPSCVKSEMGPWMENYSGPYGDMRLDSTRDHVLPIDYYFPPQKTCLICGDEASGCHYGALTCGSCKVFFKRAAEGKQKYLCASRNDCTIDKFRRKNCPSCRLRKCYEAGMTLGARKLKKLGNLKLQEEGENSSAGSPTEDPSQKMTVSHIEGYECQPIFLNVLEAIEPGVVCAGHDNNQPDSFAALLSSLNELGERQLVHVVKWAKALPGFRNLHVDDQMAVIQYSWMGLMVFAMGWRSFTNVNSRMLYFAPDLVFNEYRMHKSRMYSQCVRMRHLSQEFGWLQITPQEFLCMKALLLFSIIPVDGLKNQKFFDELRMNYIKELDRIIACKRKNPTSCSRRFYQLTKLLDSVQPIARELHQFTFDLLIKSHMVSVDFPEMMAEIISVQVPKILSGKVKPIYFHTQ
# [10] = prostate, castrated rats, dose response 0.1-1.0 mg/day
# [11] = castrated rats, 1 mg/day, daily injection
structure (smiles),measurement,setting,value
CC(=O)Nc1ccc(OC[C@](C)(O)C(=O)Nc2ccc([N+](=O)[O-])c(C(F)(F)F)c2)cc1 [Compound V],"MHC IIb expression, % of untreated control",[1],124% and 124.5%
same,Presence of levator ani muscle after treatment,[2],had a muscle present in the location expected for the levator ani
same,Agonist character in prostate,[3],partial agonist
same,Agonist character in seminal vesicles,[4],partial agonist
same,ED50,[4],0.55 ± 0.02 mg/day
same,Emax (% of Intact Control),[4],28.5 ± 0.8 % of Intact Control
same,Agonist character in levator ani muscle,"[5]; male rats, from organ weights",full agonist
same,Adverse pharmacologic effects,[6],No adverse pharmacologic effects were observed
same,"Changes in plasma concentrations of FSH, LH and testosterone",[7],absence of any significant changes
same,"MHC type IIb transcription, % of untreated control",[8]; gastrocnemius muscle,162(±54) %
same,"MHC type IIb transcription, % of untreated control",[8]; masseter muscle,117(±13) %
"CCC(=O)O[C@H]1CC[C@H]2[C@@H]3CCC4=CC(=O)CC[C@]4(C)[C@H]3CC[C@]12C [TP, testosterone propionate, reference compound]","MHC IIb expression, % of untreated control",[1],141.5%
same,"MHC IIb expression, % of untreated control",[1]; listed as testosterone propionate,142%
same,Presence of levator ani muscle after treatment,[2],had a muscle present in the location expected for the levator ani
same,ED50,[3]; [10],0.13 ± 0.03 mg/day
same,Emax (% of Intact Control),[3]; [10],120.6 ± 13.4 % of Intact Control
same,Relative Afficacy,"[3]; prostate, relative to TP",1.00
same,Relative Potency,"[3]; prostate, relative to TP",1.00
same,ED50,[4],0.12 ± 0.02 mg/day
same,Emax (% of Intact Control),[4],70.0 ± 18.8 % of Intact Control
same,Relative Afficacy,[4],1.00
same,Relative Potency,[4],1.00
same,ED50,[5]; castrated rats,0.15 ± 0.03 mg/day
same,Emax (% of Intact Control),[5]; castrated rats,104.2 ± 10.1 % of Intact Control
same,Relative Afficacy,[5],1.00
same,Relative Potency,[5],1.00
same,"MHC type IIb transcription, % of untreated control",[8]; gastrocnemius muscle,139(±47) %
same,"MHC type IIb transcription, % of untreated control",[8]; masseter muscle,120(±14) %
C[C@](O)(COc1ccc(Br)cc1)C(=O)Nc1ccc([N+](=O)[O-])c(C(F)(F)F)c1 [Compound VIII],Levator ani muscle weight compared with intact controls,[5],close to those of the intact controls
same,RBA (%),[9],5.3%
C[C@](O)(COc1ccc(Cl)cc1)C(=O)Nc1ccc([N+](=O)[O-])c(C(F)(F)F)c1 [Compound VII],Levator ani muscle weight compared with intact controls,[5],exceeding those of intact controls
C[C@](O)(COc1ccc(F)cc1)C(=O)Nc1ccc(C#N)c(C(F)(F)F)c1 [Compound X],Prostate weight,"[3]; castrated rats, 0.10 mg/day",6.4 ± 0.82 % of intact
same,Prostate weight,"[3]; castrated rats, 0.50 mg/day",6.2 ± 0.56 % of intact
same,Prostate weight,"[3]; castrated rats, 0.75 mg/day",7.6 ± 0.74 % of intact
same,Prostate weight,"[3]; castrated rats, 1.00 mg/day",8.7±1.39 % of intact
same,Agonist character in prostate,[3],weak partial agonist
same,Seminal Vesicles weight,[4]; 0.10 mg/day,8.8 ± 1.18 % of intact
same,Seminal Vesicles weight,[4]; 0.50 mg/day,9.3 ± 1.57 % of intact
same,Seminal Vesicles weight,[4]; 0.75 mg/day,9.8 ± 3.65 % of intact
same,Seminal Vesicles weight,[4]; 1.00 mg/day,10.7±0.91 % of intact
same,Agonist character in seminal vesicles,[4],weak partial agonist
same,Levator Ani weight,"[5]; castrated rats, 0.10 mg/day",54.9 ± 5.77 % of intact
same,Levator Ani weight,"[5]; castrated rats, 0.50 mg/day",55.0 ± 9.23 % of intact
same,Levator Ani weight,"[5]; castrated rats, 0.75 mg/day",68.9 ± 8.46 % of intact
same,Levator Ani weight,"[5]; castrated rats, 1.00 mg/day",75.2±9.51 % of intact
C[C@](O)(COc1c(F)c(F)c(F)c(F)c1F)C(=O)Nc1ccc([N+](=O)[O-])c(C(F)(F)F)c1 [Compound XII],Prostate weight,[3]; [11],7.2 ± 1.4 % of intact
same,Agonist character in prostate,[3],weak partial agonist
same,Seminal Vesicles weight,"[4]; 1 mg/day, daily injection",7.2 ± 0.9 % of intact
same,Agonist character in seminal vesicles,[4],weak partial agonist
same,Levator Ani Muscle weight,"[5]; castrated rats, 1 mg/day via osmotic pump",122.5±10.4 % of intact
same,RBA (%),[9],13.3%
C[C@](O)(COc1ccc(F)cc1)C(=O)Nc1ccc([N+](=O)[O-])c(C(F)(F)F)c1 [Compound VI],ED50,[4],0.38 ± 0.26 mg/day
same,Emax (% of Intact Control),[4],12.7 ± 3.1 % of Intact Control
same,Relative Afficacy,[4],0.18
same,Relative Potency,[4],0.32
same,Levator ani muscle weight compared with intact controls,[5],close to those of the intact controls
same,ED50,[5]; castrated rats,0.44 ± 0.01 mg/day
same,Emax (% of Intact Control),[5]; castrated rats,74.9 ± 0.4 % of Intact Control
same,Relative Afficacy,[5],0.72
same,Relative Potency,[5],0.34
C[C@](O)(COc1ccc(F)c(F)c1)C(=O)Nc1ccc([N+](=O)[O-])c(C(F)(F)F)c1 [Compound XI],Prostate weight,[3]; [11],33.1 ± 8.5 % of intact
same,Agonist character in prostate,[3],weak partial agonist
same,Seminal Vesicles weight,"[4]; 1 mg/day, daily injection",23.6 ± 8.8 % of intact
same,Agonist character in seminal vesicles,[4],weak partial agonist
same,Ki,[9],3.4 ± 0.56 nM
C[C@](O)(COc1ccc(I)cc1)C(=O)Nc1ccc([N+](=O)[O-])c(C(F)(F)F)c1 [Compound IX],Levator ani muscle weight compared with intact controls,[5],close to those of the intact controls
same,RBA (%),[9],2.7%
